The text below walks through data of PMC9365994, “Small molecules to regulate the GH/IGF1 axis by inhibiting the growth hormone receptor synthesis” (Frontiers in Endocrinology, 2022).

Entries after “also recorded” stand apart in the source; their conditions may differ.

Assay [1] deals with MM231 breast cancer cells. The assay can be described thus: MM231 orthotopic xenograft, tumor growth. The class given is in vivo, mice. Conditions: 1 and 5 mg/kg, 3 injections per week, 3 weeks. The protocol:
Female RAG2^-/-; IL-2Rgc^-/- immune deficient mice ([37]) were purchased from Envigo (Horst, The Netherlands). Orthotopic transplantations, longitudinal tumor measurements and bioluminescence imaging were performed as described ([38]). Mice were treated when tumors reached a volume of >50 mm^3, three times weekly for a period of three weeks with the indicated drug concentrations.
BM001, BM002, and BM003 were used in mice xenografted with MM231 breast cancer cells that are GH-responsive both for growth and drug resistance ([42]–[45]). The cells were orthotopically grafted into the inguinal mammary gland, and drug treatments started when tumors reached a volume of >50 mm^3. We used a treatment regimen of 3 injections per week (1 and 5 mg/kg) during 3 weeks (9 mice/group) ( Figure 6 ). Animals were killed when tumor volume exceeded 150 mm^3 or mice presented lung metastasis upon bioluminescence imaging measurements. […] Drug withdrawal effects were not studied until now. […] We observed no adverse side effects neither on appetite and behavior ([46]). […] We next assessed if the identified drugs indeed target the GH/IGF1 pathway and consequently, if they result in a decrease in liver weight and IGF1 levels, as observed in GHR knockout mice and Laron patients ([47]).

Another assay has as its target T1, GHR (Homo sapiens, UniProt P10912).
T1 construct: endogenous in cells; host or cells: IM-9 human B lymphoblasts
T1 sequence (P10912 19-638): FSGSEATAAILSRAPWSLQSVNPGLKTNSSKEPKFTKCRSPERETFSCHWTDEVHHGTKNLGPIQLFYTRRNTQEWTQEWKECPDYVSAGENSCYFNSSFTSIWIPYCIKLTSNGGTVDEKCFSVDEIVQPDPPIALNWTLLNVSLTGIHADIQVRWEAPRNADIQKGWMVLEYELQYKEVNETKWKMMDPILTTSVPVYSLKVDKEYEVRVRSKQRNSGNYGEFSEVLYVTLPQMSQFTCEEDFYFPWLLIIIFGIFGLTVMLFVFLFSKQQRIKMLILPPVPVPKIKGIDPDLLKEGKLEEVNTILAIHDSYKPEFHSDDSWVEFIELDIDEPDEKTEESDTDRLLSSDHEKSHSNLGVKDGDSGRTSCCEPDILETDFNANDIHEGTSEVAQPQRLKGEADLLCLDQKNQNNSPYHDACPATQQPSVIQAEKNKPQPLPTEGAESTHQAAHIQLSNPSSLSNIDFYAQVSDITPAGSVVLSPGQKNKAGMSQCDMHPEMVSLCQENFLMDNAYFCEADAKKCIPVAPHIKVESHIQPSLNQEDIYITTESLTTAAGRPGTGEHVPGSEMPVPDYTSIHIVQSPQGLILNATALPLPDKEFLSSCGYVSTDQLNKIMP
The assay can be described thus: Endogenous GHR levels in IM-9 human B lymphoblasts (immunoprecipitation). It is filed as cell-based. The conditions noted are these: for levels of GHR: IM-9 lymphoblasts, in 4 h. As to the method: For GHR-Jak2 co-immunoprecipitations, the cells were lysed in 20 mM Tris pH 8.0, 150 mM NaCl, 0.5% NP40, 1 mM PMSF, […]. Cell lysates were centrifuged to pellet the nuclei and the supernatants were used for GHR isolation in 1% Triton X-100, 0.5% SDS,0.25% sodium deoxycholate, 0.5% BSA, and inhibitors via immune precipitation with anti-GHR and protein A beads. Immunoprecipitates were subjected to reducing SDS-PAGE and transferred to Immobilon-FL polyvinylidenedifluoride membrane (Millipore). Blots were immunostained with the indicated primary antibodies followed by Alexa Fluor 680, Alexa-800 IRDye conjugated anti-mouse or anti-rabbit antibodies. Detection was performed with an Odyssey system (LI-COR Biosciences).
In the primary screen we used soluble fos-zipped GHR cytosolic tails that act in signaling complexes if co-expressed with Jak2. Initially, 6 scenarios were anticipated that can lower these signals. In the discovery itinerary we used the flow cytometer assay twice to find drugs that act on the GH-induced Jak2/STAT5 pathway and not on the identical GM/CSF-driven pathway ( Figure 3 , Figure S8 ). As the GM/CSF-induced Jak2/STAT5 pathway was not affected by the 2 hit compounds (BM004 and BM012), that served as prototypes for the final analogue selection, we excluded the possibility that they act on the Jak2 signaling pathway directly (scenario 1). To test scenario 2 (inhibition of fos-GHRct expression), we treated GHR-expressing Hek293T cells with a selection of drugs from the cell proliferation studies and analyzed the GHR species. […] The ratio between the amounts of GHR in the ER and at the PM reflects a steady state of synthesis (ER) and transport to the PM followed by endocytosis and degradation in the lysosomes. […] Because both species diminished, the drugs either inhibit the synthesis of GHR molecules or induce rapid GHR degradation in the ER. To decide between these possibilities, we performed in vitro translation experiments. […]
Figure 7 Effect of drugs on protein synthesis. […] The blots were detected with anti-GHR(B). […]

For `Cc1nc(N)nc(N)c1/C=C/C1(c2ccc(C(F)(F)F)cc2)CC1` [BM001], the “tumor growth / tumor volume (in words)” value in assay [1] is listed as “strong decrease; also recorded: continued to suppress tumor growth; also recorded: inhibit tumor growth; also recorded: tumor regression”. For the same molecule, the “GHR in IM-9 cells” value at GHR (drugs 4 hrs) is recorded as “depleted”.

Consider `COc1cc(CN(C)c2ccc3nc(N)nc(N)c3c2)cc(OC)c1OC` [BM003], for which, in assay [1], the “tumor growth / tumor volume (in words)” value is “started to increase again; also recorded: inhibit tumor growth”. On GHR, the “levels of GHR” value is on record as ~ 60%.

Turning to `Cc1c(-c2cccc(C#N)c2)ccc2nc(N)nc(N)c12` [BM002], in assay [1], the “tumor growth / tumor volume (in words)” value is recorded as “started to increase again; also recorded: inhibit tumor growth”. In addition, the “levels of GHR” value on GHR is ~ 60%.
